Test systems include RXF 393 renal; 786-0 renal; A549 NSCLC; SK-MEL-2 melanoma; HCC-2998 colon; SNB-75 CNS; A498 renal; HT29 colon; NCI-H460 lung; T-47D breast; BT-549 breast.
Experiment in all cases: growth of human tumour cells (NCI), 48 h

Several values for one entry are separate records, joined by “and”; a condition that tells them apart may be missing. Identical values can stand only once.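 In this assay, cells in 96-well plates receive the compound at five concentrations for 48 hours. Endpoints are linearly interpolated between the surrounding concentrations. Abbreviation: GI50, concentration required for 50% inhibition of growth. Definition used: TGI = concentration required for complete inhibition of growth.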 Some results are limits rather than exact numbers.

In the case of `CSc1ccc2c(cc1=O)[C@@H](NC(=O)c1ccc(F)cc1)CCc1cc(O)c(O)c(O)c1-2`, the TGI in the assay with RXF 393 renal, in the assay with 786-0 renal, in the assay on A549 NSCLC, in the assay with SK-MEL-2 melanoma, in the assay with HCC-2998 colon and in the assay on SNB-75 CNS was greater than 100 µM in each case. Moreover, the TGI with A498 renal, in the assay on HT29 colon and in the assay with NCI-H460 lung was greater than 100 µM throughout.

Consider `CCOP(C)(=O)C(Nc1ccc(F)cc1)c1ccc(F)cc1` (stereo not drawn), for which the TGI in the assay with RXF 393 renal, with 786-0 renal, in the assay with A549 NSCLC, in the assay on SK-MEL-2 melanoma, with T-47D breast and with HCC-2998 colon was greater than 100 µM throughout. The TGI with A498 renal, in the assay on HT29 colon and in the assay on NCI-H460 lung was greater than 100 µM throughout.

In the case of `CCN(CC)c1nc(N(C)C)c2cc(OC)ccc2n1`, the TGI is greater than 100 µM in the assay on RXF 393 renal; 86.2 µM in the assay on 786-0 renal; greater than 100 µM in the assay with A549 NSCLC; greater than 100 µM with SK-MEL-2 melanoma; 46.4 µM in the assay with HCC-2998 colon; greater than 100 µM in the assay on BT-549 breast. The TGI in the assay on A498 renal, in the assay on HT29 colon and in the assay with NCI-H460 lung was greater than 100 µM throughout.

For the molecule `Cc1nc2c(ncn2CCO)c(=O)[nH]1`, the TGI with RXF 393 renal, in the assay with 786-0 renal, with A549 NSCLC, in the assay with T-47D breast, in the assay on HCC-2998 colon and in the assay with SNB-75 CNS was greater than 100 µM in each case. Besides, the TGI with A498 renal, in the assay on HT29 colon and in the assay on NCI-H460 lung was greater than 100 µM each time.

Consider `O=C1NN(c2ccccc2)C(=O)C2C3c4ccccc4C(c4ccccc43)C12` (stereo not drawn), for which the TGI in the assay with RXF 393 renal, in the assay on 786-0 renal, in the assay on A549 NSCLC, in the assay with SK-MEL-2 melanoma, with T-47D breast and with HCC-2998 colon was greater than 100 µM each time. In addition, the TGI with SNB-75 CNS, in the assay on A498 renal, in the assay on HT29 colon and in the assay with NCI-H460 lung was greater than 100 µM each time.

Regarding `O=C(Nc1c(Cl)cc([N+](=O)[O-])cc1Cl)/C(=N\Nc1cccc(Cl)c1)c1c(O)c2ccccc2oc1=O`, the TGI in the assay with RXF 393 renal was greater than 100 µM; in the assay with 786-0 renal, greater than 100 µM; in the assay with A549 NSCLC, greater than 100 µM; with SK-MEL-2 melanoma, greater than 100 µM; in the assay with HCC-2998 colon, greater than 100 µM; in the assay on A498 renal it was 91.4 µM. Moreover, the TGI in the assay with HT29 colon and in the assay with NCI-H460 lung was greater than 100 µM each time.

Regarding `COc1ccc([C@@H]2CC(=O)NCCCCNCCCN2)cc1`, the TGI with RXF 393 renal, in the assay on 786-0 renal, in the assay on A549 NSCLC, in the assay with SK-MEL-2 melanoma, in the assay on SNB-75 CNS and in the assay on A498 renal was greater than 100 µM in each case. For the same molecule, the TGI in the assay on HT29 colon and in the assay on NCI-H460 lung was greater than 100 µM each time.

As to `COc1cc([C@@H]2c3cc4c(c(O)c3C[C@H]3COC(=O)[C@@H]32)OCO4)cc(OC)c1O`, the GI50 was 0.00215 µM in the assay on RXF 393 renal; 0.00385 µM in the assay with A549 NSCLC; 0.0283 µM in the assay on HCC-2998 colon; 0.00421 µM in the assay on SNB-75 CNS; 0.00144 µM in the assay with A498 renal; 0.0182 µM in the assay with HT29 colon. Further, the TGI was greater than 200 µM with A549 NSCLC; 6.56 µM in the assay on SK-MEL-2 melanoma; 2 µM in the assay with HCC-2998 colon; greater than 78.6 µM in the assay with SNB-75 CNS; 0.0046 µM and < 0.02 µM in the assay on A498 renal; 1.53 µM with HT29 colon.

With `CN1OC2OC(=O)OC2[C@H]1[C@H]1O[C@H](c2ccccc2)OC1(C)c1cc(OC(=O)c2ccccc2)ccc1OC(=O)c1ccccc1` (stereo partly drawn), the TGI in the assay with RXF 393 renal, in the assay with 786-0 renal, in the assay on A549 NSCLC, in the assay with SK-MEL-2 melanoma, with SNB-75 CNS and in the assay on HT29 colon was greater than 50 µM in each case. In the assay on NCI-H460 lung, the TGI was greater than 50 µM.

On to `CC(=O)NC(CCCCNC(=O)N(C)N=O)C(=O)NCc1ccccc1` (stereo not drawn), for which the TGI with RXF 393 renal, with 786-0 renal, in the assay on A549 NSCLC, in the assay with SK-MEL-2 melanoma, with HCC-2998 colon and in the assay with SNB-75 CNS was greater than 100 µM in each case. Moreover, the TGI in the assay on A498 renal, in the assay on HT29 colon and with NCI-H460 lung was greater than 100 µM each time.

`Cc1cc(NCCCCCCNc2cc(C)nc3ccc(Cl)cc23)c2cc(Cl)ccc2n1`: the TGI with RXF 393 renal was determined as 30.6 µM; in the assay with 786-0 renal, 32 µM; in the assay with A549 NSCLC, 45.9 µM; in the assay with SK-MEL-2 melanoma it was 46 µM; in the assay with HCC-2998 colon, 30.3 µM; in the assay with SNB-75 CNS, 35.5 µM. Besides, the TGI in the assay with A498 renal was greater than 100 µM; in the assay with HT29 colon, 33.5 µM; with NCI-H460 lung, 29.8 µM.

Take `Nc1ccc(N)c2c1C(=O)c1c(N)ccc(N)c1C2=O`: the TGI is greater than 93.5 µM with RXF 393 renal; greater than 100 µM in the assay on 786-0 renal; greater than 100 µM with A549 NSCLC; greater than 100 µM in the assay on SK-MEL-2 melanoma; greater than 100 µM in the assay with HCC-2998 colon; greater than 77.7 µM in the assay with SNB-75 CNS. In addition, the TGI in the assay with A498 renal, in the assay on HT29 colon and with NCI-H460 lung was greater than 100 µM in each case.

For the molecule `O=C(CSc1nnc(-c2ccc(N=Cc3ccc(Cl)cc3)cc2)o1)Nc1cccc(Cl)c1`, the TGI in the assay on RXF 393 renal, in the assay on 786-0 renal, in the assay on A549 NSCLC, in the assay with SK-MEL-2 melanoma, in the assay on SNB-75 CNS and with HT29 colon was greater than 100 µM throughout. The TGI with NCI-H460 lung was greater than 100 µM.

On to `S=C(Nc1ccccc1)N1N=C2c3ccccc3CC[C@H]2[C@@H]1c1ccccc1`, for which the TGI in the assay on RXF 393 renal, with 786-0 renal, with A549 NSCLC, in the assay with SK-MEL-2 melanoma, in the assay with HCC-2998 colon and in the assay on A498 renal was greater than 100 µM throughout. In addition, the TGI in the assay on HT29 colon and in the assay with NCI-H460 lung was greater than 100 µM in each case.

The record behind these values is PubChem BioAssay (NCI).
